Patent US20250271426A1, “REDUCTION OF BITTER TASTE OF ACTIVE PHARMACEUTICAL INGREDIENTS AND RELATED ASSAYS AND SCREENING METHODS” (Firmenich Incorporated, priority 2022, published 2025)

Key:
Experiment in all cases: FLIPR calcium assay, cells with promiscuous G protein transfected with bitter receptor cDNA
Format in all cases: cell-based
Settings in all cases: responsive if cellular response of >10% over baseline, Fluo4-AM
[1] = target: T1, T2R receptor SEQ ID NO: 3 (S3) (Homo sapiens, UniProt Q9NYW0, T156M)
T1 construct: expressed in transfected cells; host or cells: cells expressing a promiscuous G protein (e.g., G16g44)
T1 sequence (Q9NYW0 1-307 T156M): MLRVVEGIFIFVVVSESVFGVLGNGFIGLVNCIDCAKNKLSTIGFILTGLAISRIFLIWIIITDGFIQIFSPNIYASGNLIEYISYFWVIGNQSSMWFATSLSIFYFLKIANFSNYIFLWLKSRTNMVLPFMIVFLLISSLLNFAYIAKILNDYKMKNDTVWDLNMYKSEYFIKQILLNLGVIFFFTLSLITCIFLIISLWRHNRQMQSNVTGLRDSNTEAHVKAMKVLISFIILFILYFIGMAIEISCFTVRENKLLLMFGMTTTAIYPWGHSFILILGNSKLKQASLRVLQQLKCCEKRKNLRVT
Method: (§1) Cells expressing a promiscuous G protein (e.g., G16g44) were transfected with vectors encoding 22 functional bitter receptor cDNAs, with one receptor per transfection. The cells were transfected directly in 384-well format high-density plates and incubated for 28 hours. Later, cells were loaded with the Ca-specific dye Fluo4-AM. After an incubation of 60 minutes, excess dye is washed off, and cells are stimulated with respective bitter agonists while simultaneously recording changes in intracellular fluorescence using a FLIPR instrument.
(§2) The above protocol was carried out using 94 different active pharmaceutical ingredients (APIs) that span a wide range of different APIs having a diversity of chemical structures. A particular T2R receptor was identified as being responsive to a particular API if it triggered a cellular response of >10% over baseline.

[2] = target: T2, T2R receptor SEQ ID NO: 5 (S5) (Homo sapiens, UniProt P59534)
T2 construct: expressed in transfected cells; host or cells: cells expressing a promiscuous G protein (e.g., G16g44)
T2 sequence (P59534 18-338): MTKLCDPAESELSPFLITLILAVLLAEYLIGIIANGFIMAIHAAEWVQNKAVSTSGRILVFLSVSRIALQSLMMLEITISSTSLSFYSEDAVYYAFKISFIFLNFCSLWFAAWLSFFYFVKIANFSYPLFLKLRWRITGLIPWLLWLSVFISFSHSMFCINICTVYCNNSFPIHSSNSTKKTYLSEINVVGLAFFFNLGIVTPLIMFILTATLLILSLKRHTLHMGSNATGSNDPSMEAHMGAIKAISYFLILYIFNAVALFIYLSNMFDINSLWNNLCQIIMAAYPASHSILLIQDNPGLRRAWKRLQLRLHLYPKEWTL
Method: as §1, §2

[3] = target: T3, T2R receptor SEQ ID NO: 6 (S6) (Homo sapiens, UniProt P59540)
T3 construct: expressed in transfected cells; host or cells: cells expressing a promiscuous G protein (e.g., G16g44)
T3 sequence (P59540 1-309): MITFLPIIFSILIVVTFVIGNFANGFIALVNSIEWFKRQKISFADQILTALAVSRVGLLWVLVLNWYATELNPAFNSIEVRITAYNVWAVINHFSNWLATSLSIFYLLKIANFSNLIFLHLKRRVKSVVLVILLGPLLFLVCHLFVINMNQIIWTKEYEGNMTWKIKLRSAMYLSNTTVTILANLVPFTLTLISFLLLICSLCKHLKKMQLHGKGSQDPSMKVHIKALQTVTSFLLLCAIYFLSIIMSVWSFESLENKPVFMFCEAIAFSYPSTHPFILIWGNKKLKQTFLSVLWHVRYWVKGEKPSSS
Method: as §1, §2

[4] = target: T4, T2R receptor SEQ ID NO: 1 (S1) (Homo sapiens, UniProt Q9NYW7)
T4 construct: expressed in transfected cells; host or cells: cells expressing a promiscuous G protein (e.g., G16g44)
T4 sequence (Q9NYW7 1-299): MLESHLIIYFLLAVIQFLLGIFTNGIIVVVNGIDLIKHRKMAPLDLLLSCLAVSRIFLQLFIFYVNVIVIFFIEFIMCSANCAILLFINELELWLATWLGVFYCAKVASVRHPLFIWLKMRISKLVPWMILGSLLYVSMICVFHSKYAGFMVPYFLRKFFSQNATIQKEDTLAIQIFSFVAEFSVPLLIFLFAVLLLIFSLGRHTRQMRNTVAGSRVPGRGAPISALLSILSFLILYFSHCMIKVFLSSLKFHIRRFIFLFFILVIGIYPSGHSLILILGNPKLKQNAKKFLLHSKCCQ
Method: as §1, §2

[5] = target: T5, T2R receptor SEQ ID NO: 4 (S4) (Homo sapiens, UniProt Q9NYV8)
T5 construct: expressed in transfected cells; host or cells: cells expressing a promiscuous G protein (e.g., G16g44)
T5 sequence (Q9NYV8 1-317): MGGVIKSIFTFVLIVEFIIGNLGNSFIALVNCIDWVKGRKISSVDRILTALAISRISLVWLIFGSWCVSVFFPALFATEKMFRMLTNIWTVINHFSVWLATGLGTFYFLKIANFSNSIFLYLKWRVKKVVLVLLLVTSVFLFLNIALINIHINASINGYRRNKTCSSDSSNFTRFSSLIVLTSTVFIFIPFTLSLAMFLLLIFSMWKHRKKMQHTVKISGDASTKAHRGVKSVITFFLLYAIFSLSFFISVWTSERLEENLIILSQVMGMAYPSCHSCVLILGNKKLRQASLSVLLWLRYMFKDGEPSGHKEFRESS
Method: as §1, §2

## CN(C)CCC(c1ccc(Br)cc1)c1ccccn1 (stereo not shown) [Brompheniramine]
[1]
  S3 positive response of T2R receptor to API: + (a “+” to indicate whether a particular T2R receptor showed a positive response to a particular API)
[2]
  S5 positive response of T2R receptor to API: + (a “+” to indicate whether a particular T2R receptor showed a positive response to a particular API)
[3]
  S6 positive response of T2R receptor to API: + (a “+” to indicate whether a particular T2R receptor showed a positive response to a particular API)
[4]
  S1 positive response of T2R receptor to API: + (a “+” to indicate whether a particular T2R receptor showed a positive response to a particular API)
[5]
  S4 positive response of T2R receptor to API: + (a “+” to indicate whether a particular T2R receptor showed a positive response to a particular API)

## N=C(NCCCCCCNC(=N)NC(=N)Nc1ccc(Cl)cc1)NC(=N)Nc1ccc(Cl)cc1.O=C(O)[C@H](O)[C@@H](O)[C@H](O)[C@H](O)CO.O=C(O)[C@H](O)[C@@H](O)[C@H](O)[C@H](O)CO [Chlorhexidine Digluconate]
[2]
  S5 positive response of T2R receptor to API: + (a “+” to indicate whether a particular T2R receptor showed a positive response to a particular API)
[3]
  S6 positive response of T2R receptor to API: + (a “+” to indicate whether a particular T2R receptor showed a positive response to a particular API)
[4]
  S1 positive response of T2R receptor to API: + (a “+” to indicate whether a particular T2R receptor showed a positive response to a particular API)
[5]
  S4 positive response of T2R receptor to API: + (a “+” to indicate whether a particular T2R receptor showed a positive response to a particular API)

## CN(C)CCC(c1ccc(Cl)cc1)c1ccccn1 (stereo not shown) [Chlorpheniramine]
[1]
  S3 positive response of T2R receptor to API: + (a “+” to indicate whether a particular T2R receptor showed a positive response to a particular API)
[2]
  S5 positive response of T2R receptor to API: + (a “+” to indicate whether a particular T2R receptor showed a positive response to a particular API)
[3]
  S6 positive response of T2R receptor to API: + (a “+” to indicate whether a particular T2R receptor showed a positive response to a particular API)
[4]
  S1 positive response of T2R receptor to API: + (a “+” to indicate whether a particular T2R receptor showed a positive response to a particular API)
[5]
  S4 positive response of T2R receptor to API: + (a “+” to indicate whether a particular T2R receptor showed a positive response to a particular API)

## CC[C@H]1OC(=O)[C@H](C)[C@@H](O[C@H]2C[C@@](C)(OC)[C@@H](O)[C@H](C)O2)[C@H](C)[C@@H](O[C@@H]2O[C@H](C)C[C@H](N(C)C)[C@H]2O)[C@](C)(OC)C[C@@H](C)C(=O)[C@H](C)[C@@H](O)[C@]1(C)O [Clarithromycin]
[1]
  S3 positive response of T2R receptor to API: + (a “+” to indicate whether a particular T2R receptor showed a positive response to a particular API)
[2]
  S5 positive response of T2R receptor to API: + (a “+” to indicate whether a particular T2R receptor showed a positive response to a particular API)
[4]
  S1 positive response of T2R receptor to API: + (a “+” to indicate whether a particular T2R receptor showed a positive response to a particular API)

## COc1ccc2c(c1)[C@]13CCCC[C@@H]1[C@H](C2)N(C)CC3 [Dextromethorphan]
[1]
  S3 positive response of T2R receptor to API: + (a “+” to indicate whether a particular T2R receptor showed a positive response to a particular API)
[2]
  S5 positive response of T2R receptor to API: + (a “+” to indicate whether a particular T2R receptor showed a positive response to a particular API)
[3]
  S6 positive response of T2R receptor to API: + (a “+” to indicate whether a particular T2R receptor showed a positive response to a particular API)
[4]
  S1 positive response of T2R receptor to API: + (a “+” to indicate whether a particular T2R receptor showed a positive response to a particular API)
[5]
  S4 positive response of T2R receptor to API: + (a “+” to indicate whether a particular T2R receptor showed a positive response to a particular API)

## CC[N+](C)(C)c1cccc(O)c1 [Edrophonium]
[2]
  S5 positive response of T2R receptor to API: + (a “+” to indicate whether a particular T2R receptor showed a positive response to a particular API)
[3]
  S6 positive response of T2R receptor to API: + (a “+” to indicate whether a particular T2R receptor showed a positive response to a particular API)
[4]
  S1 positive response of T2R receptor to API: + (a “+” to indicate whether a particular T2R receptor showed a positive response to a particular API)

## CC(C)(C(=O)O)c1ccc(C(O)CCCN2CCC(C(O)(c3ccccc3)c3ccccc3)CC2)cc1 (stereo not shown) [Fexofenadine]
[2]
  S5 positive response of T2R receptor to API: + (a “+” to indicate whether a particular T2R receptor showed a positive response to a particular API)
[3]
  S6 positive response of T2R receptor to API: + (a “+” to indicate whether a particular T2R receptor showed a positive response to a particular API)
[4]
  S1 positive response of T2R receptor to API: + (a “+” to indicate whether a particular T2R receptor showed a positive response to a particular API)

## CCN(CC)CC#CCOC(=O)C(O)(c1ccccc1)C1CCCCC1 (stereo not shown) [Oxybutynin Chloride]
[1]
  S3 positive response of T2R receptor to API: + (a “+” to indicate whether a particular T2R receptor showed a positive response to a particular API)
[2]
  S5 positive response of T2R receptor to API: + (a “+” to indicate whether a particular T2R receptor showed a positive response to a particular API)
[3]
  S6 positive response of T2R receptor to API: + (a “+” to indicate whether a particular T2R receptor showed a positive response to a particular API)
[5]
  S4 positive response of T2R receptor to API: + (a “+” to indicate whether a particular T2R receptor showed a positive response to a particular API)

## C=C[C@H]1C[N@@]2CC[C@H]1C[C@H]2[C@H](O)c1ccnc2ccc(OC)cc12 [Quinine]
[1]
  S3 positive response of T2R receptor to API: + (a “+” to indicate whether a particular T2R receptor showed a positive response to a particular API)
[2]
  S5 positive response of T2R receptor to API: + (a “+” to indicate whether a particular T2R receptor showed a positive response to a particular API)
[3]
  S6 positive response of T2R receptor to API: + (a “+” to indicate whether a particular T2R receptor showed a positive response to a particular API)
[5]
  S4 positive response of T2R receptor to API: + (a “+” to indicate whether a particular T2R receptor showed a positive response to a particular API)

## CC(C)(C)NC[C@H](O)COc1nsnc1N1CCOCC1 [Timolol]
[1]
  S3 positive response of T2R receptor to API: + (a “+” to indicate whether a particular T2R receptor showed a positive response to a particular API)
[2]
  S5 positive response of T2R receptor to API: + (a “+” to indicate whether a particular T2R receptor showed a positive response to a particular API)
[3]
  S6 positive response of T2R receptor to API: + (a “+” to indicate whether a particular T2R receptor showed a positive response to a particular API)
[4]
  S1 positive response of T2R receptor to API: + (a “+” to indicate whether a particular T2R receptor showed a positive response to a particular API)

## CC(=O)CC(c1ccccc1)c1c(O)c2ccccc2oc1=O (stereo not shown) [Warfarin]
[2]
  S5 positive response of T2R receptor to API: + (a “+” to indicate whether a particular T2R receptor showed a positive response to a particular API)
[4]
  S1 positive response of T2R receptor to API: + (a “+” to indicate whether a particular T2R receptor showed a positive response to a particular API)
[5]
  S4 positive response of T2R receptor to API: + (a “+” to indicate whether a particular T2R receptor showed a positive response to a particular API)
